According to the CheMixHub viscosity set:

Assay: xn = mol fraction of the nth substance listed

OCCCl + CCCOC(C)=O
viscosity [mPa·s], 101.33 kPa
Conditions	x1 = 0.1017	x1 = 0.2031	x1 = 0.3017	x1 = 0.4061	x1 = 0.5057	x1 = 0.5974	x1 = 0.7006	x1 = 0.7963	x1 = 0.9006
298.15 K	0.593	0.658	0.736	0.852	0.989	1.155	1.43	1.805	2.302
303.15 K	0.557	0.614	0.687	0.792	0.908	1.057	1.293	1.615	2.035
308.15 K	0.525	0.58	0.642	0.733	0.856	0.97	1.177	1.473	1.81

CCCC(O)CC (stereo not given) + CCO
298.15 K, 101.33 kPa
Conditions	viscosity [mPa·s]
x2 = 0.1028	4.236
x2 = 0.2116	3.975
x2 = 0.3124	3.658
x2 = 0.4135	3.218
x2 = 0.5018	2.88
x2 = 0.6027	2.459
x2 = 0.6987	2.054
x2 = 0.7994	1.673
x2 = 0.9044	1.363

CN1CCC[C@H]1c1cccnc1 + CCO
viscosity [mPa·s], 101.33 kPa
Conditions	298.15 K	323.15 K
x1 = 0.0501	1.468	0.8557
x1 = 0.1104	1.756	1.03
x1 = 0.1524	1.941	1.123
x1 = 0.2923	2.477	1.376
x1 = 0.3425	2.652	1.482
x1 = 0.4474	3.004	1.703
x1 = 0.4676	3.008	1.764
x1 = 0.5898	3.224	1.784
x1 = 0.6839	3.497	1.88
x1 = 0.7725	3.564	1.961
x1 = 0.8957	3.801	2.026
x1 = 0.8976	3.803	2.026

COCC(C)OCC(C)O (stereo not given) + CCO
viscosity [mPa·s], 101.33 kPa
Conditions	298.15 K	308.15 K	318.15 K
x1 = 0.05	1.237	1.014	0.84
x1 = 0.1	1.385	1.119	0.92
x1 = 0.1501	1.525	1.218	0.996
x1 = 0.2	1.661	1.32	1.073
x1 = 0.2501	1.803	1.421	1.148
x1 = 0.3	1.941	1.521	1.225
x1 = 0.35	2.081	1.623	1.301
x1 = 0.4001	2.216	1.723	1.379
x1 = 0.45	2.35	1.82	1.451
x1 = 0.5	2.485	1.916	1.525
x1 = 0.5497	2.616	2.006	1.594
x1 = 0.6	2.744	2.099	1.662
x1 = 0.6497	2.871	2.192	1.726
x1 = 0.7001	3.001	2.281	1.796
x1 = 0.75	3.125	2.365	1.857
x1 = 0.8001	3.241	2.449	1.922
x1 = 0.8497	3.359	2.531	1.979
x1 = 0.8996	3.472	2.61	2.036
x1 = 0.9498	3.579	2.686	2.09

OCCCl + CCO
viscosity [mPa·s], 101.33 kPa
Conditions	x1 = 0.0955	x1 = 0.2589	x1 = 0.2902	x1 = 0.3931	x1 = 0.4925	x1 = 0.5932	x1 = 0.6938	x1 = 0.7947	x1 = 0.8984
298.15 K	1.086	1.262	1.302	1.45	1.61	1.798	2.001	2.222	2.538
303.15 K	0.987	1.14	1.174	1.306	1.447	1.601	1.772	1.958	2.197
308.15 K	0.897	1.034	1.065	1.179	1.297	1.432	1.579	1.735	1.932

OCCCl + CCOC(C)=O
viscosity [mPa·s], 101.33 kPa
Conditions	x1 = 0.1033	x1 = 0.2006	x1 = 0.3231	x1 = 0.4048	x1 = 0.5015	x1 = 0.6007	x1 = 0.7022	x1 = 0.8	x1 = 0.9
298.15 K	0.485	0.542	0.643	0.729	0.864	1.065	1.326	1.689	2.242
303.15 K	0.454	0.51	0.601	0.679	0.8	0.967	1.2	1.517	1.98
308.15 K	0.43	0.482	0.565	0.635	0.746	0.894	1.098	1.369	1.776

NC=O + CN(C)C=O
298.15 K, 101.3 kPa
Conditions	viscosity [mPa·s]
x1 = 0.1	1.041
x1 = 0.2	1.27
x1 = 0.3	1.472
x1 = 0.4	1.698
x1 = 0.5	1.939
x1 = 0.6	2.198
x1 = 0.7	2.483
x1 = 0.8	2.817
x1 = 0.9	3.191

OCCCO + CN(C)C=O
308.15 K, 101 kPa
Conditions	viscosity [mPa·s]
x1 = 0.0229	0.76
x1 = 0.0468	0.834
x1 = 0.0914	0.904
x1 = 0.2048	1.267
x1 = 0.3032	1.748
x1 = 0.397	2.4
x1 = 0.4994	3.516
x1 = 0.597	5.056
x1 = 0.699	7.606
x1 = 0.7983	11.93
x1 = 0.9001	17.75
x1 = 0.9477	20.44

CCCC(O)CC (stereo not given) + CO
298.15 K, 101.33 kPa
Conditions	viscosity [mPa·s]
x2 = 0.1014	4.298
x2 = 0.2029	3.945
x2 = 0.3111	3.363
x2 = 0.4188	2.737
x2 = 0.503	2.278
x2 = 0.6078	1.758
x2 = 0.7072	1.383
x2 = 0.7994	1.054
x2 = 0.9014	0.7655

OCCCl + CO
viscosity [mPa·s], 101.33 kPa
Conditions	x1 = 0.096	x1 = 0.2122	x1 = 0.2939	x1 = 0.3927	x1 = 0.4944	x1 = 0.598	x1 = 0.6969	x1 = 0.7977	x1 = 0.8997
298.15 K	0.615	0.777	0.91	1.099	1.321	1.591	1.869	2.13	2.45
303.15 K	0.572	0.721	0.834	1.003	1.195	1.434	1.632	1.884	2.14
308.15 K	0.529	0.662	0.767	0.913	1.084	1.287	1.456	1.675	1.89

OCCCl + COC(C)=O
viscosity [mPa·s], 101.33 kPa
Conditions	x1 = 0.1021	x1 = 0.2013	x1 = 0.3049	x1 = 0.4029	x1 = 0.5056	x1 = 0.6047	x1 = 0.7046	x1 = 0.7987	x1 = 0.9014
298.15 K	0.438	0.501	0.587	0.691	0.844	1.039	1.324	1.688	2.234
303.15 K	0.414	0.472	0.555	0.645	0.787	0.954	1.197	1.518	1.978
308.15 K	0.392	0.447	0.519	0.606	0.726	0.881	1.094	1.369	1.762

NC=O + COCCO
101 kPa
Conditions	viscosity [mPa·s]
303 K, x1 = 0.1585	1.679
303 K, x1 = 0.4194	2.286
303 K, x1 = 0.5295	2.443
303 K, x1 = 0.6283	2.625
303 K, x1 = 0.717	2.859
303 K, x1 = 0.8711	2.837
303 K, x1 = 0.9381	2.945
303.15 K, x1 = 0.1785	1.795
313 K, x1 = 0.2971	1.632
313 K, x1 = 0.4194	1.841
313 K, x1 = 0.5295	1.958
313 K, x1 = 0.6283	2.067
313 K, x1 = 0.717	2.223
313 K, x1 = 0.7978	2.339
313 K, x1 = 0.8711	2.226
318.15 K, x1 = 0.5726	1.885

O[C@@H]1CO[C@H]2[C@@H]1OC[C@@H]2O + C[N+](C)(C)CC(=O)[O-]
Conditions	viscosity [mPa·s]
298.15 K, 101.33 kPa, x1 = 0.7	513.3

OCCCO + C[N+](C)(C)CCO.[Cl-]
viscosity [mPa·s], 101.3 kPa
Conditions	293.15 K	298.15 K	298.2 K	303.15 K	308.15 K	308.2 K	313.15 K	318.15 K	318.2 K	323.15 K
x1 = 0.7509	69.74	55.76	–	45.4	37.43	–	31.35	26.52	–	22.62
x1 = 0.8001	61.31	49.49	–	40.7	33.88	–	27.31	23.03	–	19.63
x1 = 0.8328	57.14	46.14	–	37.62	30.92	–	25.67	21.53	–	18.26
x1 = 0.8567	53.95	42.83	–	34.73	28.58	–	24.01	20.38	–	17.26
x2 = 0.1667	–	–	49.5	–	–	36.9	–	–	27.6	–
x2 = 0.2	–	–	–	34.45	28.87	–	24.21	20.52	–	17.57
x2 = 0.25	–	–	–	40.05	33.17	–	27.84	23.62	–	20.25

CCN(CC)CC(=O)Nc1c(C)cccc1C + Cc1ccc(C(C)C)c(O)c1
100 kPa, x2 = 0.5
Conditions	viscosity [mPa·s]
293.15 K	177.3
298.15 K	111.3
303.15 K	73.71
308.15 K	51.05
313.15 K	36.76
318.15 K	27.36
323.15 K	20.98

Cc1cccc(C(C)C)c1 + Cc1ccc(C(C)C)cc1
101 kPa, x2 = 0.4
Conditions	viscosity [mPa·s]
293.15 K	0.8
313.15 K	0.72

CC(C)C#N + Cc1ccc(C)cc1
viscosity [mPa·s], 101 kPa
Conditions	x2 = 0.1003	x2 = 0.2009	x2 = 0.3014	x2 = 0.4041	x2 = 0.4978	x2 = 0.6013	x2 = 0.7001	x2 = 0.8003	x2 = 0.8998
303.15 K	0.474	0.482	0.484	0.498	0.505	0.519	0.531	0.55	0.558
308.15 K	0.444	0.453	0.453	0.461	0.473	0.485	0.495	0.507	0.519
